Reference: patent publication US12447153B2, “HER2 mutation inhibitors” (Array BioPharma Inc., priority 2021, dated 2025)

Key:
[1] = molecular target: ErbB2 WT (Homo sapiens (Human), UniProt P04626); assay: ErbB Enzyme Assay (HTRF KinEASE-TK), Assay 2; type: biochemical
[2] = molecular target: EGFR (Homo sapiens (Human), UniProt P00533); assay: ErbB Enzyme Assay (HTRF KinEASE-TK), Assay 3; type: biochemical
[3] = molecular target: ErbB2 with Exon 20 YVMA insertion (HER2-YVMA) (Homo sapiens (Human), UniProt P04626, INS775YVMA); assay: Cellular Phosphorylation Assay, Assay 4 (constitutive ErbB2 phosphorylation, NIH 3T3 cells); type: cell-based
Sequence of ErbB2 with Exon 20 YVMA insertion (HER2-YVMA) (P04626 other isoform, or with tags, fused parts or gaps ins YVMA behind 775): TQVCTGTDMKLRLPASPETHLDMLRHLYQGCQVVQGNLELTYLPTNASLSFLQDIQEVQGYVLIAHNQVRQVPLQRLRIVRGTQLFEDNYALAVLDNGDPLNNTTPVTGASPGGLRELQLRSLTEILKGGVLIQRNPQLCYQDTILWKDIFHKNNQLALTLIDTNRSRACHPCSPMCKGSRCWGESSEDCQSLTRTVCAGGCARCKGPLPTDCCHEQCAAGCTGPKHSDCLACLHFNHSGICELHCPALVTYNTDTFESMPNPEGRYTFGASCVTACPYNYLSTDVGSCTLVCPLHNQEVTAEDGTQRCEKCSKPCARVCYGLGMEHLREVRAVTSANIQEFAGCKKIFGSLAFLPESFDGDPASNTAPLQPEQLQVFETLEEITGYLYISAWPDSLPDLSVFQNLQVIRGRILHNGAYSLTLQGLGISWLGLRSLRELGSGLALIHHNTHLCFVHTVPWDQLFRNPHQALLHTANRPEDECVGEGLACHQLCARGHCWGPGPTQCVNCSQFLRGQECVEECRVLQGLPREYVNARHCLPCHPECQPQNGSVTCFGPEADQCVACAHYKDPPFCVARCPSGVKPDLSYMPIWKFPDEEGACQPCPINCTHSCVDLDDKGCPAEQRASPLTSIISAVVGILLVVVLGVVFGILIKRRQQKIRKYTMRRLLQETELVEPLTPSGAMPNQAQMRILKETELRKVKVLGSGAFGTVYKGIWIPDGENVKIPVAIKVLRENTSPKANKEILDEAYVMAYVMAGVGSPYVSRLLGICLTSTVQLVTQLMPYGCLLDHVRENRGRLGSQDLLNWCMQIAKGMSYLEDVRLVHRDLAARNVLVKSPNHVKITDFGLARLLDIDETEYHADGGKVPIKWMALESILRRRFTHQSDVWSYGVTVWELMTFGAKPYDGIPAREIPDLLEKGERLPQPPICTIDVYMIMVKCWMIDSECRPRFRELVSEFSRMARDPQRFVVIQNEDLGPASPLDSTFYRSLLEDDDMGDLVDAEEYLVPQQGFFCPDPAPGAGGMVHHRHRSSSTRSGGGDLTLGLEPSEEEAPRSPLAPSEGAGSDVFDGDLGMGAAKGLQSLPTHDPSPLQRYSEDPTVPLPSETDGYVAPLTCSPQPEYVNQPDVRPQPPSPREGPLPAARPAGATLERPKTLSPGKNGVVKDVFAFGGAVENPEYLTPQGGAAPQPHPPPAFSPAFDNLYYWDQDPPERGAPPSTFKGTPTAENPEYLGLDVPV

[4] = molecular target: EGFR wild type (EGFR WT) (Homo sapiens (Human), UniProt P00533); assay: Cellular Phosphorylation Assay, Assay 5 (EGF-stimulated EGFR phosphorylation, NIH 3T3 cells); type: cell-based
Sequence of EGFR wild type (EGFR WT) (P00533 25-1210): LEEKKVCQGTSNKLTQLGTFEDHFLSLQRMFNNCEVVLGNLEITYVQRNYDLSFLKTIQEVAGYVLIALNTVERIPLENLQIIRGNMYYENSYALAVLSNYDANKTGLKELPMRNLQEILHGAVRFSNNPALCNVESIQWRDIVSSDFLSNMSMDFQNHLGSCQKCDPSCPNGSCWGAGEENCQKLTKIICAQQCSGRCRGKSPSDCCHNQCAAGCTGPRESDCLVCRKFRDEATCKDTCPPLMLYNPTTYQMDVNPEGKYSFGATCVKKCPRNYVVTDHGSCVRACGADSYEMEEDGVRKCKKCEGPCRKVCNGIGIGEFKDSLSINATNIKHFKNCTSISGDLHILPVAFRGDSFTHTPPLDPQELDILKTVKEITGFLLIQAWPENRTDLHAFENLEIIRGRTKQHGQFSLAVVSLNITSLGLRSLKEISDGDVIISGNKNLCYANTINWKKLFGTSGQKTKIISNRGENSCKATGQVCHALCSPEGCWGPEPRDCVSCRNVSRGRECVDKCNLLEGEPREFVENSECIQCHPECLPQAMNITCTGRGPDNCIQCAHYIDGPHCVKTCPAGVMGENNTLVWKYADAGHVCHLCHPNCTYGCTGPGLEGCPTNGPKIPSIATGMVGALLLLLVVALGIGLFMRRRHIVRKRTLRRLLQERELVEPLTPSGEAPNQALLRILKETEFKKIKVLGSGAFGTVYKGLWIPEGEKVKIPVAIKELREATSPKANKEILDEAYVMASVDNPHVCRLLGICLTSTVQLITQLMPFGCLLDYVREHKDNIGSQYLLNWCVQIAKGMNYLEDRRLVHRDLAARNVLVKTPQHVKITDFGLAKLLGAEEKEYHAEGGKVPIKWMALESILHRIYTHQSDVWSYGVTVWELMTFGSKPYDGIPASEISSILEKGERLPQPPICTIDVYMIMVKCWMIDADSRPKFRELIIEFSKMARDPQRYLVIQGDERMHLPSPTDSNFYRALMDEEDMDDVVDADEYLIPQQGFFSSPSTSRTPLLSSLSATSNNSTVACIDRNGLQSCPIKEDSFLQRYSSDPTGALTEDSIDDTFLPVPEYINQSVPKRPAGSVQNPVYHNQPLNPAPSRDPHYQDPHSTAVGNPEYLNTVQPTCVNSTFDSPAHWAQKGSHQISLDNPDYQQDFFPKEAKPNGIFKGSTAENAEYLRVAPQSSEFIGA

[5] = molecular target: BCRP (Homo sapiens (Human), UniProt Q9UNQ0); assay: BCRP MDCKII efflux assay (Assay 7); type: in vitro ADME; settings: dog; efflux ratio Papp(B-A)/Papp(A-B), BCRP MDCKII cells; read-out: Assay 7 Pe Ratio
Sequence of BCRP (Q9UNQ0 whole entry): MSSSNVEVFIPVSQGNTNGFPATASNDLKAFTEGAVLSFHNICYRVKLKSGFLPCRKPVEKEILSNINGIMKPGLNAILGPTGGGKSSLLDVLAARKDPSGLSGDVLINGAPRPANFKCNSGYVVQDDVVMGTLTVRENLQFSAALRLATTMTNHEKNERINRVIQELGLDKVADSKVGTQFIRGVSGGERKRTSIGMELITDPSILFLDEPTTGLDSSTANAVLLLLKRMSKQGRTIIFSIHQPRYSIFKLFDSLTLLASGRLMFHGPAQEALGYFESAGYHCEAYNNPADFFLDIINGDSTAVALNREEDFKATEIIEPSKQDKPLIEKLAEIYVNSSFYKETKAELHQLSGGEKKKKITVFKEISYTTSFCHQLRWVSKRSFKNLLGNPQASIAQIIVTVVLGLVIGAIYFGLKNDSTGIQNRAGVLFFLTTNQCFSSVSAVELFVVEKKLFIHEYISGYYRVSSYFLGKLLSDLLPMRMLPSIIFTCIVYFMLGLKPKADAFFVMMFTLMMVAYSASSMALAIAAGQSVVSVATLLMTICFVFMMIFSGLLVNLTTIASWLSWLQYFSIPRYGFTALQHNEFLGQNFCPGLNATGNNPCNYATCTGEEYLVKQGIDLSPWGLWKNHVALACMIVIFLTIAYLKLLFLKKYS
Experimental: Assay conditions included with and without the BCRP-specific inhibitor, KO143, at a concentration of 0.3 μM to ascertain the contribution of BCRP to the efflux value of the test compound.
Final organic concentration in the assay was 1%.

[6] = molecular target: MDR1 (P-gp) (Homo sapiens (Human), UniProt P08183); assay: in vitro; settings: pig, LLC-PK1
[7] = EGF-stimulated EGFR WT phosphorylation
[8] = cellular ErbB2 YVMA phosphorylation
[9] = cellular EGFR WT phosphorylation, EGF-stimulated

Sequence of EGFR (P00533 25-1210): as the sequence (P00533 25-1210) above

| IC50 ([1]; ErbB2 WT enzyme) [nM] | IC50 ([2]; EGFR enzyme) [nM] | IC50 ([3]; ErbB2 YVMA phosphorylation) [nM] | IC50 [4, 7] [nM] | efflux ratio at 2 h, 1 µM [5] | efflux ratio at 2 h, 1 µM [6] | IC50 ([1]; ErbB2 WT enzyme assay) [nM] | IC50 ([2]; EGFR enzyme assay) [nM] | IC50 [3, 8] [nM] | IC50 [4, 9] [nM] | SMILES |
| --- | --- | --- | --- | --- | --- | --- | --- | --- | --- | --- |
| 16.7 | 835 | 6.8 | 538 | 6.1 | 1.8 | – | – | – | – | C=CC(=O)N1CCN(c2ccc3ncnc(Nc4ccc(Oc5ccn6ncnc6c5)c(C)c4F)c3n2)CC1 [Example 96, 1-(4-(4-((4-([1,2,4]triazolo[1,5-a]pyridin-7-yloxy)-2-fluoro-3-methylphenyl)amino)pyrido[3,2-d]pyrimidin-6-yl)piperazin-1-yl)prop-2-en-1-one] |
| – | – | – | – | 3.6 | 1.4 | 13 | 362 | 8.2 | 417 | C=CC(=O)N1CCN(c2ccc3ncnc(Nc4cc(C)c(Oc5ccn6ncnc6c5)cc4F)c3n2)CC12CC2 [Example 337] |
| 37.4 | ≥ 10000 | 32.9 | ≥ 5000 | 4.2 | 2.4 | – | – | – | – | C=CC(=O)N1CCC(Sc2ccc3ncnc(Nc4cc(C)c(Oc5ccc6c(c5)ncn6C)cc4F)c3n2)CC1 [Example 64, 1-(4-((4-((2-fluoro-5-methyl-4-((1-methyl-1H-benzo[d]imidazol-5-yl)oxy)phenyl)amino)pyrido[3,2-d]pyrimidin-6-yl)thio)piperidin-1-yl)prop-2-en-1-one] |
| 33.6 | 4430 | 12.5 | 1010 | 7.3 | 11.4 | – | – | – | – | C=CC(=O)N1CCC(Oc2ccc3ncnc(Nc4ccc(Oc5ccn6ncnc6c5)c(C)c4)c3n2)CC1 [Example 1, 1-(4-((4-((4-([1,2,4]triazolo[1,5-a]pyridin-7-yloxy)-3-methylphenyl)amino)pyrido[3,2-d]pyrimidin-6-yl)oxy)piperidin-1-yl)prop-2-en-1-one] |
| 39.2 | 1380 | 32 | ≥ 5000 | 2.5 | 1.9 | – | – | – | – | C=CC(=O)N1CC2(C1)CN(c1ccc3ncnc(Nc4ccc(Oc5ccn6ncnc6c5)c(Cl)c4F)c3n1)C2 [Example 101, 1-(6-(4-((4-([1,2,4]triazolo[1,5-a]pyridin-7-yloxy)-3-chloro-2-fluorophenyl)amino)pyrido[3,2-d]pyrimidin-6-yl)-2,6-diazaspiro[3.3]heptan-2-yl)prop-2-en-1-one] |
| – | – | – | – | 5 | 1.3 | 28.3 | 848 | 29.4 | 1950 | C=CC(=O)N1C[C@@H](c2ccc3ncnc(Nc4ccc(Oc5ccn6ncnc6c5)c(C)c4F)c3n2)C[C@@H]1C (mixture of isomers) [Example 385] |
| 83.1 | ≥ 10000 | 177 | ≥ 5000 | 4.2 | 1.2 | – | – | – | – | Cc1c(Oc2ccn3ncnc3c2)ccc(Nc2ncnc3ccc(N4CCN(C#N)C(C)(C)C4)nc23)c1F [Example 245, 4-(4-((4-([1,2,4]triazolo[1,5-a]pyridin-7-yloxy)-2-fluoro-3-methylphenyl)amino)pyrido[3,2-d]pyrimidin-6-yl)-2,2-dimethylpiperazine-1-carbonitrile] |
| – | – | – | – | 4.8 | 0.9 | 234 | ≥ 10000 | 27.1 | ≥ 5000 | C=CC(=O)N1CCN(c2ccc3ncnc(Nc4cc(C)c(Oc5cnc6c(c5)ncn6C)cc4F)c3n2)C[C@H]1C1CC1 [Example 356] |
| – | – | – | – | 2.9 | 1 | 170 | 4580 | 21.1 | ≥ 5000 | C=CC(=O)N1CCN(c2ccc3ncnc(Nc4cc(C)c(Oc5ccc6c(c5)ncn6C)cc4F)c3n2)C[C@@H]1C1CC1 [Example 252] |
| – | – | – | – | 4.3 | 0.9 | 8.7 | 336 | 9.3 | 737 | C=CC(=O)N1C[C@H]2C[C@@H]1[C@H](c1ccc3ncnc(Nc4ccc(Oc5ccn6ncnc6c5)c(Cl)c4F)c3n1)C2 [Example 406] |
| 15.5 | 550 | 20.6 | 4220 | 2.8 | 1.2 | – | – | – | – | C=CC(=O)N1C[C@H]2C[C@@H]1[C@H](c1ccc3ncnc(Nc4ccc(Oc5ccc6c(c5)ncn6C)c(C)c4F)c3n1)C2 (racemic) [Example 202, rac-1-((1R,4R,6R)-6-(4-((2-fluoro-3-methyl-4-((1-methyl-1H-benzo[d]imidazol-5-yl)oxy)phenyl)amino)pyrido[3,2-d]pyrimidin-6-yl)-2-azabicyclo[2.2.1]heptan-2-yl)prop-2-en-1-one] |
| 5.9 | 410 | 15.3 | 582 | 1.4 | 6.4 | – | – | – | – | C=CC(=O)N1CCCC[C@@H](c2ccc3ncnc(Nc4ccc(Oc5ccc6c(c5)ncn6C)c(C)c4F)c3n2)C1 (racemic) [Example 145, rac-(R)-1-(3-(4-((2-fluoro-3-methyl-4-((1-methyl-1H-benzo[d]imidazol-5-yl)oxy)phenyl)amino)pyrido[3,2-d]pyrimidin-6-yl)azepan-1-yl)prop-2-en-1-one] |
| 39.9 | ≥ 10000 | 28.6 | ≥ 5000 | 1.7 | 1.7 | – | – | – | – | C=CC(=O)N1C[C@H]2C[C@H](c3ccc4ncnc(Nc5cc(C)c(Oc6ccc7c(c6)ncn7C)cc5F)c4n3)C[C@H]2C1 [Example 136, 1-((3aR,5s,6aS)-5-(4-((2-fluoro-5-methyl-4-((1-methyl-1H-benzo[d]imidazol-5-yl)oxy)phenyl)amino)pyrido[3,2-d]pyrimidin-6-yl)hexahydrocyclopenta[c]pyrrol-2(1H)-yl)prop-2-en-1-one] |
| 17.4 | 483 | 22.3 | 942 | 3.2 | 0.6 | – | – | – | – | C=CC(=O)N1C[C@@H]2C[C@H]1C[C@H]2c1ccc2ncnc(Nc3ccc(Oc4ccn5ncnc5c4)c(C)c3F)c2n1 (racemic) [Example 199, rac-1-((1 S,4R,5R)-5-(4-((4-([1,2,4]triazolo[1,5-a]pyridin-7-yloxy)-2-fluoro-3-methylphenyl)amino)pyrido[3,2-d]pyrimidin-6-yl)-2-azabicyclo[2.2.1]heptan-2-yl)prop-2-en-1-one] |
| 18.6 | 1170 | 10.5 | 2810 | 3 | 1.5 | – | – | – | – | C=CC(=O)N1CC[C@H]2CN(c3ccc4ncnc(Nc5ccc(Oc6ccn7ncnc7c6)c(Cl)c5F)c4n3)C[C@H]21 [Example 49, 1-((3aS,6aS)-5-(4-((4-([1,2,4]triazolo[1,5-a]pyridin-7-yloxy)-3-chloro-2-fluorophenyl)amino)pyrido[3,2-d]pyrimidin-6-yl)hexahydropyrrolo[3,4-b]pyrrol-1(2H)-yl)prop-2-en-1-one] |
| – | – | – | – | 3.6 | 4.8 | 8.1 | 192 | 5.7 | 264 | C=CC(=O)N1C[C@@H]2CC[C@H]1CN2c1ccc2ncnc(Nc3cc(C)c(Oc4ccn5ncnc5c4)cc3F)c2n1 [Example 319] |
| 61.8 | ≥ 10000 | 16 | ≥ 5000 | 3.4 | 0.7 | – | – | – | – | C=CC(=O)N1C[C@H](c2ccc3ncnc(Nc4ccc(Oc5ccc6c(c5)ncn6C)c(C)c4F)c3n2)C[C@H]1C [Example 193, 1-((2R,4R)-4-(4-((2-fluoro-3-methyl-4-((1-methyl-1H-benzo[d]imidazol-5-yl)oxy)phenyl)amino)pyrido[3,2-d]pyrimidin-6-yl)-2-methylpyrrolidin-1-yl)prop-2-en-1-one] |
| – | – | – | – | 2.3 | 2.9 | 33.6 | 908 | 8 | 760 | C=CC(=O)N1CCC12CN(c1ccc3ncnc(Nc4cc(C)c(Oc5ccn6ncnc6c5)cc4F)c3n1)C2 [Example 361] |
| – | – | – | – | 3.6 | 1.3 | 13.4 | ≥ 10000 | 27.9 | 716 | C=CC(=O)N1CCCN(c2ccc3ncnc(Nc4ccc(Oc5ccn6ncnc6c5)c(Cl)c4F)c3n2)CC1(C)C [Example 261] |

| SMILES | IC50 ([1]; ErbB2 WT enzyme) [nM] | IC50 ([2]; EGFR enzyme) [nM] | IC50 ([3]; ErbB2 YVMA phosphorylation) [nM] | IC50 [4, 7] [nM] | efflux ratio at 2 h, 1 µM [5] | efflux ratio at 2 h, 1 µM [6] | IC50 ([1]; ErbB2 WT enzyme assay) [nM] | IC50 ([2]; EGFR enzyme assay) [nM] | IC50 [3, 8] [nM] | IC50 [4, 9] [nM] |
| --- | --- | --- | --- | --- | --- | --- | --- | --- | --- | --- |
| C=CC(=O)N1[C@@H]2CC[C@H]1[C@H](c1ccc3ncnc(Nc4ccc(Oc5ccn6ncnc6c5)c(C)c4F)c3n1)C2 (single isomer, unassigned) [Example 228] | 130 | 4550 | 33.6 | ≥ 5000 | 3.3 | 0.8 | – | – | – | – |
| C=CC(=O)N1[C@@H]2CC[C@H]1[C@H](c1ccc3ncnc(Nc4ccc(Oc5ccn6ncnc6c5)c(C)c4)c3n1)C2 (racemic) [Example 220, rac-1-((1 S,2R,4R)-2-(4-((4-([1,2,4]triazolo[1,5-a]pyridin-7-yloxy)-3-methylphenyl)amino)pyrido[3,2-d]pyrimidin-6-yl)-7-azabicyclo[2.2.1]heptan-7-yl)prop-2-en-1-one] | 17.9 | 412 | 18.5 | ≥ 5000 | 2.2 | 1.3 | – | – | – | – |
